Measured values as given in patent US20230085307A1, “PYRIDAZINONE COMPOUND AND HERBICIDE” (NISSAN CHEMICAL CORPORATION, priority 2019, published 2023).

The compounds below were run on late watergrass (assay: Test Example 1: herbicidal activity, application before weed generation under submerged conditions (Table 16, symbol A)). Conditions: 320 g/ha applied herbicide.
Assay type: in vivo, late watergrass (Echinochloa oryzicola)
Procedure, shortened: (§1)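 Emulsion formulation, water-diluted to set dose, was put onto the flooded surface (4 cm depth, alluvial soil) the same day weeds were sown and 2.5-leaf rice transplanted. After 3 weeks at 25-30 °C under glass, each species was rated 0 (≤5% kill) to 5 (≥90% kill).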

| SMILES | Herbicidal effect on A: late watergrass (grade 0-5) |
| --- | --- |
| CCOc1ccc(-c2sc3ccc(F)cc3c2-c2c(O)c(C)nn(C)c2=O)cc1 [2-030] | 3 (Herbicidal rate of 40% or more and less than 70%) |
| CCCC(=O)Oc1c(C)nn(C)c(=O)c1-c1c(-c2ccc(OCC)cc2)sc2ccc(F)cc12 [2-031] | 3 (Herbicidal rate of 40% or more and less than 70%) |

Each compound was assayed on Japanese bulrush (assay: Test Example 1: herbicidal activity, application before weed generation under submerged conditions (Table 16, symbol B)). Conditions: 320 g/ha applied herbicide.
Assay type: in vivo, Japanese bulrush (Schoenoplectus juncoides)
Procedure, shortened: as §1

| SMILES | Herbicidal effect on B: Japanese bulrush (grade 0-5) |
| --- | --- |
| CCOc1ccc(-c2sc3ccc(F)cc3c2-c2c(O)c(C)nn(C)c2=O)cc1 [2-030] | 0 (Herbicidal rate of 5% or less (almost no effect)) |
| CCCC(=O)Oc1c(C)nn(C)c(=O)c1-c1c(-c2ccc(OCC)cc2)sc2ccc(F)cc12 [2-031] | 4 (Herbicidal rate of 70% or more and less than 90%) |

The compounds below were run on late watergrass (assay: Test Example 2: herbicidal activity, application during weed generation under submerged conditions (Table 17, symbol A)). Conditions: AAH 320 g/ha; application during weed generation, submerged conditions.
Assay type: in vivo, late watergrass (Echinochloa oryzicola)
Procedure, shortened: (§2)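 3-wk visual-criteria score after one water-surface dose. Emulsion formulation, water-diluted to set rate; applied at 1–2 leaf stage; alluvial soil, 4 cm standing water; seeds co-sown; greenhouse 25–30° C.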

| SMILES | herbicidal effect rating, A: late watergrass |
| --- | --- |
| CCOc1ccc(-c2sc3ccc(F)cc3c2-c2c(O)c(C)nn(C)c2=O)cc1 [2-030] | 0 (Herbicidal rate of 5% or less (almost no effect)) |
| CCCC(=O)Oc1c(C)nn(C)c(=O)c1-c1c(-c2ccc(OCC)cc2)sc2ccc(F)cc12 [2-031] | 4 (Herbicidal rate of 70% or more and less than 90%) |

Each compound was assayed on oval-leafed pondweed (assay: Test Example 2: herbicidal activity, application during weed generation under submerged conditions (Table 17, symbol C)). Conditions: AAH 320 g/ha; application during weed generation, submerged conditions.
Assay type: in vivo, oval-leafed pondweed (Monochoria vaginalis)
Procedure, shortened: as §2

| SMILES | herbicidal effect rating, C: oval-leafed pondweed |
| --- | --- |
| CCOc1ccc(-c2sc3ccc(F)cc3c2-c2c(O)c(C)nn(C)c2=O)cc1 [2-030] | 0 (Herbicidal rate of 5% or less (almost no effect)) |
| CCCC(=O)Oc1c(C)nn(C)c(=O)c1-c1c(-c2ccc(OCC)cc2)sc2ccc(F)cc12 [2-031] | 3 (Herbicidal rate of 40% or more and less than 70%) |

These compounds were tested on barnyard grass (assay: Test Example 3: herbicidal effect by foliage application, Wagner pot (Table 18, symbol H)). Conditions: 320 g/ha.
Assay type: in vivo, barnyard grass (Echinochloa crus-galli)
Procedure, shortened: (§3)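 Plants were sown in alluvial soil held under 0.1–0.5 cm standing water and grown 14 days in a greenhouse at 25–30 °C. An emulsifiable formulation, water-diluted to the set dose, was then sprayed onto the foliage, and effects were scored three weeks later using previously defined criteria.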

| SMILES | herbicidal effect on H (barnyard grass), rating 0-5 |
| --- | --- |
| CCOc1ccc(-c2sc3ccc(F)cc3c2-c2c(O)c(C)nn(C)c2=O)cc1 [2-030] | 5 (Herbicidal rate of 90% or more (almost completely withered)) |
| CCCC(=O)Oc1c(C)nn(C)c(=O)c1-c1c(-c2ccc(OCC)cc2)sc2ccc(F)cc12 [2-031] | 5 (Herbicidal rate of 90% or more (almost completely withered)) |

These compounds were tested on Chinese sprangletop (assay: Test Example 3: herbicidal effect by foliage application, Wagner pot (Table 18, symbol D)). Conditions: 320 g/ha.
Assay type: in vivo, chinese sprangletop (Leptochloa chinensis)
Procedure, shortened: as §3

| SMILES | herbicidal effect on D (Chinese sprangletop), rating 0-5 |
| --- | --- |
| CCOc1ccc(-c2sc3ccc(F)cc3c2-c2c(O)c(C)nn(C)c2=O)cc1 [2-030] | 3 (Herbicidal rate of 40% or more and less than 70%) |
| CCCC(=O)Oc1c(C)nn(C)c(=O)c1-c1c(-c2ccc(OCC)cc2)sc2ccc(F)cc12 [2-031] | 4 (Herbicidal rate of 70% or more and less than 90%) |

Each compound was assayed on rice flat sedge (assay: Test Example 3: herbicidal effect by foliage application, Wagner pot (Table 18, symbol E)). Conditions: 320 g/ha.
Assay type: in vivo, rice flat sedge (Cyperus iria)
Procedure, shortened: as §3

| SMILES | herbicidal effect on E (rice flat sedge), rating 0-5 |
| --- | --- |
| CCOc1ccc(-c2sc3ccc(F)cc3c2-c2c(O)c(C)nn(C)c2=O)cc1 [2-030] | 5 (Herbicidal rate of 90% or more (almost completely withered)) |
| CCCC(=O)Oc1c(C)nn(C)c(=O)c1-c1c(-c2ccc(OCC)cc2)sc2ccc(F)cc12 [2-031] | 4 (Herbicidal rate of 70% or more and less than 90%) |

What follows are compounds tested on Italian ryegrass (assay: Test Example 4: herbicidal effect by soil treatment (Table 19, symbol K)). Conditions: 320 g/ha.
Assay type: in vivo, Italian ryegrass (Lolium multiflorum)
Procedure, shortened: (§4)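 Soil-surface application: an emulsion agent diluted with water to the predetermined dose is sprayed uniformly over seeds lying under roughly 1.5 cm of sterilized diluvial soil. Boxes stay in a greenhouse at 25° C. to 30° C. Three weeks later, each species is graded on previously defined criteria.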

| SMILES | herbicidal effect rating, K: Italian ryegrass |
| --- | --- |
| CCOc1ccc(-c2sc3ccc(F)cc3c2-c2c(O)c(C)nn(C)c2=O)cc1 [2-030] | 0 (Herbicidal rate of 5% or less (almost no effect)) |
| CCCC(=O)Oc1c(C)nn(C)c(=O)c1-c1c(-c2ccc(OCC)cc2)sc2ccc(F)cc12 [2-031] | 0 (Herbicidal rate of 5% or less (almost no effect)) |

These compounds were tested on windgrass (assay: Test Example 4: herbicidal effect by soil treatment (Table 19, symbol L)). Conditions: 320 g/ha.
Assay type: in vivo, windgrass (Apera spica-venti)
Procedure, shortened: as §4

| SMILES | herbicidal effect rating, L: windgrass |
| --- | --- |
| CCOc1ccc(-c2sc3ccc(F)cc3c2-c2c(O)c(C)nn(C)c2=O)cc1 [2-030] | 0 (Herbicidal rate of 5% or less (almost no effect)) |
| CCCC(=O)Oc1c(C)nn(C)c(=O)c1-c1c(-c2ccc(OCC)cc2)sc2ccc(F)cc12 [2-031] | 0 (Herbicidal rate of 5% or less (almost no effect)) |

What follows are compounds tested on redroot pigweed (assay: Test Example 4: herbicidal effect by soil treatment (Table 19, symbol N)). Conditions: 320 g/ha.
Assay type: in vivo, redroot pigweed (Amaranthus retroflexus)
Procedure, shortened: as §4

| SMILES | herbicidal effect rating, N: redroot pigweed |
| --- | --- |
| CCOc1ccc(-c2sc3ccc(F)cc3c2-c2c(O)c(C)nn(C)c2=O)cc1 [2-030] | 4 (Herbicidal rate of 70% or more and less than 90%) |
| CCCC(=O)Oc1c(C)nn(C)c(=O)c1-c1c(-c2ccc(OCC)cc2)sc2ccc(F)cc12 [2-031] | 4 (Herbicidal rate of 70% or more and less than 90%) |

Each compound was assayed on green foxtail (assay: Test Example 5: herbicidal effect by foliage application, plastic box (Table 20, symbol G)). Conditions: foliage application, 320 g/ha, 3 weeks after application.
Assay type: in vivo, green foxtail (Setaria viridis)
Procedure, shortened: (§5)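 Sow seeds spot-wise in sterilized diluvial soil; cover with ~1.5 cm soil. Grow 14 days in greenhouse, 25° C. to 30° C. Spray foliage with emulsion diluted to predetermined amount. Rate effect after 3 weeks.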

| SMILES | effect on green foxtail (G) |
| --- | --- |
| CCOc1ccc(-c2sc3ccc(F)cc3c2-c2c(O)c(C)nn(C)c2=O)cc1 [2-030] | 2 (Herbicidal rate of 20% or more and less than 40%) |
| CCCC(=O)Oc1c(C)nn(C)c(=O)c1-c1c(-c2ccc(OCC)cc2)sc2ccc(F)cc12 [2-031] | 2 (Herbicidal rate of 20% or more and less than 40%) |

These compounds were tested on barnyard grass (assay: Test Example 5: herbicidal effect by foliage application, plastic box (Table 20, symbol H)). Conditions: foliage application, 320 g/ha, 3 weeks after application.
Assay type: in vivo, barnyard grass (Echinochloa crus-galli)
Procedure, shortened: as §5

| SMILES | effect on barnyard grass (H) |
| --- | --- |
| CCOc1ccc(-c2sc3ccc(F)cc3c2-c2c(O)c(C)nn(C)c2=O)cc1 [2-030] | 5 (Herbicidal rate of 90% or more (almost completely withered)) |
| CCCC(=O)Oc1c(C)nn(C)c(=O)c1-c1c(-c2ccc(OCC)cc2)sc2ccc(F)cc12 [2-031] | 4 (Herbicidal rate of 70% or more and less than 90%) |

The compounds below were run on wild oat (assay: Test Example 5: herbicidal effect by foliage application, plastic box (Table 20, symbol I)). Conditions: foliage application, 320 g/ha, 3 weeks after application.
Assay type: in vivo, wild oat (Avena fatua)
Procedure, shortened: as §5

| SMILES | effect on wild oat (I) |
| --- | --- |
| CCOc1ccc(-c2sc3ccc(F)cc3c2-c2c(O)c(C)nn(C)c2=O)cc1 [2-030] | 0 (Herbicidal rate of 5% or less (almost no effect)) |
| CCCC(=O)Oc1c(C)nn(C)c(=O)c1-c1c(-c2ccc(OCC)cc2)sc2ccc(F)cc12 [2-031] | 0 (Herbicidal rate of 5% or less (almost no effect)) |

Each compound was assayed on blackgrass (assay: Test Example 5: herbicidal effect by foliage application, plastic box (Table 20, symbol J)). Conditions: foliage application, 320 g/ha, 3 weeks after application.
Assay type: in vivo, blackgrass (Alopecurus myosuroides)
Procedure, shortened: as §5

| SMILES | effect on blackgrass (J) |
| --- | --- |
| CCOc1ccc(-c2sc3ccc(F)cc3c2-c2c(O)c(C)nn(C)c2=O)cc1 [2-030] | 0 (Herbicidal rate of 5% or less (almost no effect)) |
| CCCC(=O)Oc1c(C)nn(C)c(=O)c1-c1c(-c2ccc(OCC)cc2)sc2ccc(F)cc12 [2-031] | 0 (Herbicidal rate of 5% or less (almost no effect)) |

These compounds were tested on Italian ryegrass (assay: Test Example 5: herbicidal effect by foliage application, plastic box (Table 20, symbol K)). Conditions: foliage application, 320 g/ha, 3 weeks after application.
Assay type: in vivo, Italian ryegrass (Lolium multiflorum)
Procedure, shortened: as §5

| SMILES | effect on Italian ryegrass (K) |
| --- | --- |
| CCOc1ccc(-c2sc3ccc(F)cc3c2-c2c(O)c(C)nn(C)c2=O)cc1 [2-030] | 3 (Herbicidal rate of 40% or more and less than 70%) |
| CCCC(=O)Oc1c(C)nn(C)c(=O)c1-c1c(-c2ccc(OCC)cc2)sc2ccc(F)cc12 [2-031] | 0 (Herbicidal rate of 5% or less (almost no effect)) |
